From ChEMBL document CHEMBL5321210, “N-adamantyl-anthranil amide derivatives: New selective ligands for the cannabinoid receptor subtype 2 (CB2R)” (Eur J Med Chem, 2023) come the findings set out here.

Each structure is given as a SMILES string. Activity calls are given as the source filed them. No cut-off for these calls is given here.

Test [1] has as its system THP-1. The experiment in a line: Antiinflammatory activity against LPS-activated PMA-differentiated human THP-1 macrophages assessed as increase in IL-10 production at 1 to 10 uM incubated for 24 hrs by ELISA coupled qRT-PCR analysis. The class given is functional, cell-based. The following applies: dose 1-10 µM. For orientation: In an ELISA, binding on a coated surface is turned into a signal by an enzyme label.

The test system of test [2] is THP-1. The test is described as follows: Antiinflammatory activity against LPS-activated PMA-differentiated human THP-1 macrophages assessed as decrease in IL-1beta production at 1 to 10 uM incubated for 24 hrs by ELISA coupled qRT-PCR analysis relative to control. The class given is functional. Also on record: scale not given: the % may be the effect or the level left. The following applies: dose 1-10 µM.

The test system of test [3] is THP-1. The experiment in a line: Antiinflammatory activity in human THP-1 monocytes assessed as decrease in TNF-alpha production incubated for 24 hrs by ELISA coupled qRT-PCR analysis. The conditions noted are these: dose 1-10 µM. The class given is functional, cell-based.
For test [4], the system named is THP-1. The experiment in a line: Antiinflammatory activity in human THP-1 monocytes assessed as increase in IL-10 production at 1 to 10 uM incubated for 24 hrs in the presence of JTE907 by ELISA coupled qRT-PCR analysis. The format is functional, cell-based. The following applies: dose 1-10 µM.
In test [5] the test system is THP-1. The test is described as follows: Antiinflammatory against LPS-activated human THP-1 monocytes assessed as increase in IL-4 production at 1 to 10 uM incubated for 24 hrs in the presence of JTE907 by ELISA coupled qRT-PCR analysis. The format is functional, cell-based. The conditions noted are these: dose 1-10 µM.
Test [6] deals with THP-1. The test is described as follows: Antiinflammatory against LPS-activated human THP-1 monocytes assessed as decrease in IL-6 production at 1 to 10 uM incubated for 24 hrs in the presence of JTE907 by ELISA coupled qRT-PCR analysis. The class given is functional, cell-based. The following applies: dose 1-10 µM.
The subject of test [7] is THP-1. The test is described as follows: Antiinflammatory activity in PMA-differentiated human THP-1 macrophages assessed as reduction in IL-1beta production at 1 to 10 uM incubated for 24 hrs by ELISA coupled qRT-PCR analysis relative to control. The conditions noted are these: dose 1-10 µM. Set-up: scale not given: the % may be the effect or the level left. The class given is functional.

The test system of test [8] is THP-1. The experiment in a line: Antiinflammatory activity in PMA-differentiated human THP-1 macrophages assessed as decrease in IL-1beta production at 1 to 10 uM incubated for 24 hrs in the presence of JTE907 by ELISA coupled qRT-PCR analysis. The format is functional, cell-based. The following applies: dose 1-10 µM.
For test [9], the system named is THP-1. The experiment in a line: Antiinflammatory activity in PMA-differentiated human THP-1 macrophages assessed as decrease in TNF-alpha production at 1 to 10 uM incubated for 24 hrs in the presence of JTE907 by ELISA coupled qRT-PCR analysis. The class given is functional, cell-based. The following applies: dose 1-10 µM.
The test system of test [10] is THP-1. The experiment in a line: Antiinflammatory activity in LPS-activated PMA-differentiated human THP-1 macrophages assessed as increase in IL-4 production at 1 to 10 uM incubated for 24 hrs in the presence of JTE907 by ELISA coupled qRT-PCR analysis. The format is functional, cell-based. The conditions noted are these: dose 1-10 µM.
Test [11] has as its system THP-1. The experiment in a line: Antiinflammatory activity in LPS-activated PMA-differentiated human THP-1 macrophages assessed as decrease in TNF-alpha production at 1 to 10 uM incubated for 24 hrs in the presence of JTE907 by ELISA coupled qRT-PCR analysis. The class given is functional, cell-based. The conditions noted are these: dose 1-10 µM.
In test [12] the test system is THP-1. The experiment in a line: Antiinflammatory activity in human THP-1 monocytes assessed as increase in IL-10 production at 10 uM incubated for 24 hrs by ELISA coupled qRT-PCR analysis. The format is functional, cell-based.
Test [13] concerns THP-1. The test is described as follows: Antiinflammatory activity in human THP-1 monocytes assessed as increase in IL-4 production at 10 uM incubated for 24 hrs by ELISA coupled qRT-PCR analysis. The format is functional, cell-based.
In test [14] the test system is THP-1. The experiment in a line: Antiinflammatory against LPS-activated human THP-1 monocytes assessed as increase in IL-4 production at 10 uM incubated for 24 hrs in the presence of JTE907 by ELISA coupled qRT-PCR analysis. The format is functional, cell-based.
The subject of test [15] is THP-1. The experiment in a line: Antiinflammatory against LPS-activated human THP-1 monocytes assessed as decrease in IL-6 production at 10 uM incubated for 24 hrs in the presence of JTE907 by ELISA coupled qRT-PCR analysis. The format is functional, cell-based.
Test [16] relates to THP-1. The experiment in a line: Antiinflammatory activity in PMA-differentiated human THP-1 macrophages assessed as reduction in TNF-alpha production at 10 uM incubated for 24 hrs by ELISA coupled qRT-PCR analysis relative to control. The format is functional. Set-up: scale not given: the % may be the effect or the level left.
The subject of test [17] is THP-1. The experiment in a line: Antiinflammatory activity against LPS-activated PMA-differentiated human THP-1 macrophages assessed as increase in IL-10 production at 10 uM incubated for 24 hrs by ELISA coupled qRT-PCR analysis. The format is functional, cell-based.
Test [18] deals with THP-1. The experiment in a line: Antiinflammatory activity in PMA-differentiated human THP-1 macrophages assessed as increase in IL-4 production at 10 uM incubated for 24 hrs in the presence of JTE907 by ELISA coupled qRT-PCR analysis. The class given is functional, cell-based.
The test system of test [19] is THP-1. The experiment in a line: Antiinflammatory activity in PMA-differentiated human THP-1 macrophages assessed as decrease in IL-6 production at 10 uM incubated for 24 hrs in the presence of JTE907 by ELISA coupled qRT-PCR analysis. The class given is functional, cell-based.
In test [20] the test system is THP-1. The test is described as follows: Antiinflammatory activity in PMA-differentiated human THP-1 macrophages assessed as decrease in TNF-alpha production at 10 uM incubated for 24 hrs in the presence of JTE907 by ELISA coupled qRT-PCR analysis. The format is functional, cell-based.
For test [21], the system named is THP-1. The test is described as follows: Antiinflammatory activity in PMA-differentiated human THP-1 macrophages assessed as decrease in IFN-gamma production at 10 uM incubated for 24 hrs in the presence of JTE907 by ELISA coupled qRT-PCR analysis. The class given is functional, cell-based.
The subject of test [22] is THP-1. The test is described as follows: Antiinflammatory activity in LPS-activated PMA-differentiated human THP-1 macrophages assessed as decrease in IL-6 production at 10 uM incubated for 24 hrs in the presence of JTE907 by ELISA coupled qRT-PCR analysis. The class given is functional, cell-based.
For test [23], the system named is THP-1. The experiment in a line: Antiinflammatory activity in LPS-activated PMA-differentiated human THP-1 macrophages assessed as decrease in TNF-alpha production at 10 uM incubated for 24 hrs in the presence of JTE907 by ELISA coupled qRT-PCR analysis. The class given is functional, cell-based.
The test system of test [24] is THP-1. The experiment in a line: Antiinflammatory activity in human THP-1 monocytes assessed as decrease in TNF-alpha production at 10 uM incubated for 24 hrs in the presence of N-(adamantan-1-yl)-4-(pentylamino)-[1,1'-biphenyl]-3-carboxamide by ELISA coupled qRT-PCR analysis. The format is functional, cell-based.
The test system of test [25] is THP-1. The experiment in a line: Antiinflammatory activity in PMA-differentiated human THP-1 monocytes assessed as increase in IL-4 production at 10 uM incubated for 24 hrs in the presence of N-(adamantan-1-yl)-4-(pentylamino)-[1,1'-biphenyl]-3-carboxamide by ELISA coupled qRT-PCR analysis. The class given is functional, cell-based.
The test system of test [26] is THP-1. The test is described as follows: Antiinflammatory activity in PMA-differentiated human THP-1 monocytes assessed as decrease in IL-1beta production at 10 uM incubated for 24 hrs in the presence of N-(adamantan-1-yl)-4-(pentylamino)-[1,1'-biphenyl]-3-carboxamide by ELISA coupled qRT-PCR analysis. The class given is functional, cell-based.
Test [27] has as its system THP-1. The test is described as follows: Antiinflammatory activity against LPS-activated PMA-differentiated human THP-1 monocytes assessed as increase in IL-4 production at 10 uM incubated for 24 hrs in the presence of N-(adamantan-1-yl)-4-(pentylamino)-[1,1'-biphenyl]-3-carboxamide by ELISA coupled qRT-PCR analysis. The format is functional, cell-based.
Test [28] deals with THP-1. The experiment in a line: Antiinflammatory activity against LPS-activated PMA-differentiated human THP-1 monocytes assessed as increase in IL-10 production at 10 uM incubated for 24 hrs in the presence of N-(adamantan-1-yl)-4-(pentylamino)-[1,1'-biphenyl]-3-carboxamide by ELISA coupled qRT-PCR analysis. The class given is functional, cell-based.

For `CCCCCNc1ccccc1C(=O)NC12CC3CC(CC(C3)C1)C2`, in the test with THP-1 [1], the result was Active. Moreover, the Activity in the test with THP-1 [2] was 70%; in the test with THP-1 [3] it was “Dose-Dependent Effect”; in the test on THP-1 [7] it was 50%. Moreover, the result with THP-1 [4], in the test on THP-1 [5], in the test on THP-1 [6], in the test with THP-1 [8], with THP-1 [9] and in the test on THP-1 [10] was inactive. Also, the outcome in the test on THP-1 [11] was inactive.

As to `O=C(NC1CCCCC1)c1cn(CCN2CCOCC2)c2cc(Cl)ccc2c1=O`, the result with THP-1 [12], with THP-1 [13] and with THP-1 [17] was Active. Besides, the outcome with THP-1 [14], with THP-1 [15], in the test on THP-1 [18], in the test on THP-1 [19], in the test with THP-1 [20] and with THP-1 [21] was inactive. For the same compound, the result in the test with THP-1 [22], with THP-1 [23], in the test on THP-1 [24], in the test on THP-1 [25], in the test with THP-1 [26] and in the test with THP-1 [27] was inactive. In addition, the outcome in the test with THP-1 [28] was inactive. Further, the Activity in the test on THP-1 [16] came out at 50%.
